# Results as given in patent EP2951180B1, “2,6,7,8 SUBSTITUTED PURINES AS HDM2 INHIBITORS” (Merck Sharp & Dohme Corp., priority 2013, dated 2014).
# pIC50: −log10 of the molar value. Where two headings read alike, the source gives them in different places.
# Target: T1, HDM2 (Homo sapiens, UniProt Q00987)
# T1 construct: Thioredoxin (N); made in house; host or cells: E. coli strain BL21(DE3)Rosetta
# Experiment: HDM2 FRET assay (inhibition of binding of FITC labeled p53-pocket peptide to HDM2)
# Details: for pIC50: read-out: FRET IC50
# Outline: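 Compounds were tested in 10-point serial dilution against 0.5 nM recombinant HDM2 binding 3 nM fluorescein-labeled p53-pocket peptide. Detection used 0.25 nM terbium cryptate anti-6xHis antibody in PBS buffer containing 0.01% BSA and 0.01% Tween-20.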
# [1] = 0.5 nM HDM2 (residues 17 to 125), 3nM peptide, two hour incubation at room temperature
# T1 sequence (Q00987 17-125): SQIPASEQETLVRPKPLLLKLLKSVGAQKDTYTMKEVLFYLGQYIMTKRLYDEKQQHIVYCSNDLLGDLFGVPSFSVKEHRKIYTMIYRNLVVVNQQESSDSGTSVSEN
smiles,measurement,setting,value
"CC[C@@H]1COCCN1c1nc2nc(-c3noc(=O)[nH]3)nc(-c3cccc(Cl)c3)c2n1C(C)[C@H]1CC[C@H](C)CC1 (single isomer, unassigned) [Example 18.51]",pIC50,Table 18,7.98
"CNC(=O)CC[C@@H](Nc1nc(C(=O)O)nc2nc(-c3cccc(C)c3)n(Cc3ccc(C(F)(F)F)cc3)c12)C1CCC1 [Example 7.13, 6-{[(1R)-1-cyclobutyl-4-(methylamino)-4-oxobutyl]amino}-8-(3-methylphenyl)-7-[4-(trifluoromethyl)benzyl]-7H-purine-2-carboxylic acid]",pIC50,Table 7,6.99
"C[C@@H]1CN(C(=O)C2CC2)[C@@H](C)CN1c1nc2nc(-c3noc(=O)[nH]3)nc(N[C@H](C)C3CCC3)c2n1C[C@H]1CC[C@H](C)CC1 [Example 17.23, 3-(6-{[(1R)-1-cyclobutylethyl]amino}-8-[(2R,5S)-4-(cyclopropylcarbonyl) -2,5-dimethylpiperazin-1-yl]-7-[(trans-4-methylcyclohexyl)methyl]-7H-purin-2-yl)-1,2,4-oxadiazol-5(4H)-one]",pIC50,Table 17.2,8.31
"CN(C)C(=O)[C@@H]1CCCN1c1nc2nc(-c3noc(=O)[nH]3)nc(-c3cccc(Cl)c3)c2n1C[C@H]1CC[C@H](C)CC1 [Example 16.148, 1-[6-(3-chlorophenyl)-7-[(trans-4-methylcyclohexyl)methyl]-2-(5-oxo-4,5-dihydro-1,2,4-oxadiazol-3-yl)-7H-purin-8-yl]-N,N-dimethyl-L-prolinamide]",pIC50,[1],7.82
"COC1(c2nc3nc(-c4noc(=O)[nH]4)nc(N[C@H](C)C4CCC4)c3n2C[C@H]2CC[C@H](C)CC2)CCC1 [Example 22.69, 3-(6-{[(1R)-1-cyclobutylethyl]amino}-8-(1-methoxycyclobutyl)-7-[(trans-4-methylcyclohexyl)methyl] -7H-purin-2-yl)-1,2,4-oxadiazol-5(4H)-one]",pIC50,Table 22,8.34
"Cc1cccc(-c2nc3nc(C(=O)O)nc(NC(C)C(C)(C)C)c3n2Cc2ccc(C(F)(F)F)cc2)c1 (stereo not drawn) [Example 6.74, 8-(3-methylphenyl)-7-[4-(trifluoromethyl)benzyl]-6-[(1,2,2-trimethylpropyl)amino]-7H-purine-2-carboxylic acid]",pIC50,Table 6,6.26
"C[C@H](C1CCC1)N(C)c1nc(C(=O)O)nc2nc(-c3cc(C(C)(C)C)ccn3)n(C[C@H]3CC[C@H](C)CC3)c12 [Example 15.20, 8-(4-tert-butylpyridin-2-yl)-6-{[(1R)-1-cyclobutylethyl] (methyl)amino} -7-[(trans-4-methylcyclohexyl)methyl]-7H-purine-2-carboxylic acid]",pIC50,[1],7.75
"C[C@@H](Nc1nc(-c2n[nH]c(=O)o2)nc2nc(N3CCO[C@H](C)[C@H]3c3ccccc3)n(C[C@H]3CC[C@H](C)CC3)c12)C1CCC1 [Example 11.166, 5-(6-{[(1R)-1-cyclobutylethyl]amino}-7-[(trans-4-methylcyclohexyl)methyl]-8-[(2R,3R)-2-methyl-3-phenylmorpholin-4-yl]-7H-purin-2-yl)-1,3,4-oxadiazol-2(3H)-one]",pIC50,Table 11,9.10
"COC1(c2nc3nc(-c4noc(=O)[nH]4)nc(-c4cncc(Cl)c4)c3n2C[C@H]2CC[C@H](C)CC2)COC1 [Example 23.70, 3-{6-(5-chloropyridin-3-yl)-8-(3-methoxyoxetan-3-yl)-7-[(trans-4-methylcyclohexyl)methyl] -7H-purin-2-yl}-1,2,4-oxadiazol-5(4H)-one]",pIC50,Table 23,8.03
"C[C@@H](Nc1nc(-c2n[nH]c(=O)o2)nc2nc(N3CCO[C@H](C)[C@@H]3C)n(C[C@H]3CC[C@H](C)CC3)c12)C1CCC1 (single isomer, unassigned) [Example 11.157]",pIC50,Table 11,7.33
"C[C@@H](Nc1nc(C(C)(C)O)nc2nc(N3CCOC[C@H]3c3ccccc3)n(C[C@H]3CC[C@H](C)CC3)c12)C1CCC1 [Example 12.14, 2-(6-{[(1R)-1-cyclobutylethyl]amino}-7-[(trans-4-methylcyclohexyl)methyl]-8-[(3R)-3-phenylmorpholin-4-yl]-7H-purine-2-yl)propan-2-ol]",pIC50,[1],6.97
"C[C@H](Nc1nc2nc(-c3noc(=O)[nH]3)nc(-c3cccc(Cl)c3)c2n1C[C@H]1CC[C@H](C)CC1)c1cccc(F)c1 [Example 16.49, 3-{6-(3-chlorophenyl)-8-{[(1S)-1-(3-fluorophenyl)ethyl]amino}-7-[(trans-4-methylcyclohexyl)methyl]-7H-purin-2-yl}-1,2,4-oxadiazol-5(4H)-one]",pIC50,[1],8.79
"CC([C@H]1CC[C@H](C)CC1)n1c(N2CCC[C@H]2CF)nc2nc(-c3noc(=O)[nH]3)nc(-c3cncc(Cl)c3)c21 (single isomer, unassigned) [Example 18.45]",pIC50,Table 18,8.62
"CC(C)c1ccnc(-c2nc3nc(C(=O)O)nc(N(C)[C@H](C)C4CCC4)c3n2C[C@H]2CC[C@H](C)CC2)c1 [Example 15.2, 6-(((R)-1-cyclobutylethyl)(methyl)amino)-8-(4-isopropylpyridin-2-yl)-7-((trans-4-methylcyclohexyl)methyl)-7H-purine-2-carboxylic acid]",pIC50,[1],7.98
"CC(C)CN(C)c1nc2nc(-c3noc(=O)[nH]3)nc(N[C@H](C)C3CCC3)c2n1Cc1ccc(C(F)(F)F)cc1 [Example 9.81, 3-(6-{[(1R)-1-cyclobutylethyl]amino}-8-[methyl(2-methylpropyl)amino]-7-[4-(trifluoromethyl)benzyl]-7H-purin-2-yl)-1,2,4-oxadiazol-5(4H)-one]",pIC50,Table 9,7.93
"C[C@@H](Nc1nc(S(C)(=O)=O)nc2nc(N3CCOC[C@H]3c3ccccc3)n(C[C@H]3CC[C@H](C)CC3)c12)C1CCC1 [Example 14.1, N-((R)-1-cyclobutylethyl)-7-((trans-4-methylcyclohexyl)methyl)-2-(methylsulfonyl)-8-((R)-3-phenylmorpholino)-7H-purin-6-amine]",pIC50,[1],7.63
"CC(Nc1nc2nc(C(=O)O)nc(N[C@H](C)C3CCC3)c2n1Cc1ccc(C(F)(F)F)cc1)c1cccnc1 (stereo partly drawn) [Example 9.30, 6-{[(1R)-1-cyclobutylethyl]amino}-8-[(1-pyridin-3-ylethyl)amino]-7-[4-(trifluoromethyl)benzyl]-7H-purine-2-carboxylic acid]",pIC50,Table 9,8.52
"Cc1cccc(-c2nc3nc(C(=O)O)nc(N[C@H](C)C4CCC4)c3n2Cc2ccc(Cl)cc2)c1 [Example 6.2, 7-(4-chlorobenzyl)-6-{[(1R)-1-cyclobutylethyl]amino}-8-(3-methylphenyl)-7H-purine-2-carboxylic acid]",pIC50,Table 6,7.86
"CC(C)c1ccnc(-c2nc3nc(-c4nnn[nH]4)nc(N[C@H](C)C4CCC4)c3n2Cc2ccc(C(F)(F)F)cc2)c1 [Example 12.1, N-[(1R)-1-cyclobutylethyl]-8-[4-(propan-2-yl)pyridin-2-yl]-2-(1H-tetrazol-5-yl)-7-[4-(trifluoromethyl)benzyl]-7H-purin-6-amine]",pIC50,[1],8.08
"C[C@@H](Nc1nc(NCC(=O)O)nc2nc(N3CCOC[C@H]3c3ccccc3)n(C[C@H]3CC[C@H](C)CC3)c12)C1CCC1 [Example 13.6, N-(6-{[(1R)-1-cyclobutylethyl]amino}-7-[(trans-4-methylcyclohexyl)methyl]-8-[(3R)-3-phenylmorpholin-4-yl]-7H-purin-2-yl)glycine]",pIC50,[1],6.83
"C[C@H]1CC[C@H](Cn2c(N3CCOC[C@H]3c3ccccc3)nc3nc(-c4noc(=O)[nH]4)nc(C4CCOCC4)c32)CC1 [Example 16.167, 3-{7-[(trans-4-methylcyclohexyl)methyl]-8-[(3R)-3-phenylmorpholin-4-yl]-6-(tetrahydro-2H-pyran-4-yl)-7H-purin-2-yl}-1,2,4-oxadiazol-5(4H)-one]",pIC50,[1],7.33
"C[C@@H](Nc1nc(C(=O)O)nc2nc(C3CCCCN3)n(Cc3ccc(C(F)(F)F)cc3)c12)C1CCC1 (stereo partly drawn) [Example 10.24, 6-(((R)-1-Cyclobutylethyl)amino)-8-(piperidin-2-yl)-7-(4-(trifluoromethyl)benzyl)-7H-purine-2-carboxylic acid]",pIC50,Table 10,7.02
"C[C@@H](Nc1nc(-c2noc(=O)[nH]2)nc2nc(C(O)C3CCC3)n(C[C@H]3CC[C@H](C)CC3)c12)C1CCC1 (stereo partly drawn) [Example 22.57, 3-(6-{[(1R)-1-cyclobutylethyl]amino}-8-[cyclobutyl(hydroxy)methyl]-7-[(trans-4-methylcyclohexyl)methyl] -7H-purin-2-yl)-1,2,4-oxadiazol-5(4H)-one]",pIC50,Table 22,8.01
"CCC1CCN(c2nc(C(=O)O)nc3nc(-c4cccc(C)c4)n(Cc4ccc(C(F)(F)F)cc4)c23)C1 (stereo not drawn) [Example 6.1, 6-(3-ethylpyrrolidin-1-yl)-8-(3-methylphenyl)-7-[4-(trifluoromethyl)benzyl]-7H-purine-2-carboxylic acid]",inhibition at 1 µM,read-out: inh. at 1000 nM (FRET),41%
"C[C@@H](Nc1nc(-c2noc(=O)[nH]2)nc2nc(N(C)[C@@H]3CCCC[C@@H]3O)n(C[C@H]3CC[C@H](C)CC3)c12)C1CCC1 (stereo in doubt) [Example 11.132, 3-(6-{[(1R)-1-cyclobutylethyl]amino}-8-{[(1R,2S)-2-hydroxycyclohexyl](methyl)amino}-7-[(trans-4-methylcyclohexyl)methyl]-7H-purin-2-yl)-1,2,4-oxadiazol-5(4H)-one]",pIC50,Table 11,7.59
"C[C@H]1CC[C@H](Cn2c(N3CCOC[C@H]3c3ccccc3)nc3nc(-c4noc(=O)[nH]4)nc(-c4cccc(Cl)c4)c32)CC1 [Example 16.18, 3-{6-(3-chlorophenyl)-7-[(trans-4-methylcyclohexyl)methyl]-8-[(3R)-3-phenylmorpholin-4-yl]-7H-purin-2-yl}-1,2,4-oxadiazol-5(4H)-one]",pIC50,[1],8.90
"Cc1cccc(-c2nc3nc(C(=O)O)nc(N[C@H](C)C4CC4)c3n2Cc2ccc(Cl)c(Cl)c2)c1 [Example 6.16, 6-{[(1R)-1-cyclopropylethyl]amino}-7-(3,4-dichlorobenzyl)-8-(3-methylphenyl)-7H-purine-2-carboxylic acid]",pIC50,Table 6,6.33
